Counter-ions that a name gives are not always drawn.
Assays:
HSP90α = HSP90α (Homo sapiens, UniProt P07900); assay: HSP90α Binding Fluorescent Polarization (FP) Assay; settings: competition with FITC-geldanamycin; read-out: HSP90 Binding Potency
Experimental: HSP90α Binding Fluorescent Polarization (FP) Assay
A master mix was prepared with assay buffer, BSA and FITC-geldanamycin. In a 96-well plate, a serial 3-fold dilution of each compound was prepared ranging from 40 μM down until 2.0 nM. Also in a 96-well plate, recombinant HSP90α protein was diluted to 28 μg/ml. Then, in a 384-well plate, 10 μl of master mix and 5 μl of compound dilution were added per well to duplicate wells and mixed by brief shaking. Then 5 μl of diluted HSP90α protein was added per well, mixed by brief shaking, incubated at 25° C. for 30, 60 and 120 min and fluorescence was measured on an EnVision Plate Reader. Background-subtracted mP values were calculated from EnVision raw data and a four-parameter “log[inhibitor] vs. response” curve was fitted using GraphPad Prism 7.0.

BRD4 (BD1+BD2) = target: T1, BRD4 (BD1+BD2) (Homo sapiens, UniProt O60885); settings: read-out: BRD4 Binding Potency
T1 construct: 1.8 μg/ml recombinant BRD4 (BD1+BD2 domains) protein
Experimental: A master mix was prepared with assay buffer, 1.8 μg/ml recombinant BRD4 (BD1+BD2 domains) protein, and 200-fold dilutions of Tb-labeled donor and dye-labeled acceptor. 40-fold dilutions of acetylated and non-acetylated ligands were prepared in 1×BRD TR-FRET assay buffer. Also, a serial 3-fold dilution of each compound was prepared ranging from 40 μM down until 2.0 nM. In a 384-well plate, 5 μl diluted ligand and 5 μl of compound dilution were added per well to duplicate wells and mixed by brief shaking. Then 10 μl of master mix was added per well, mixed by brief shaking, incubated at 25° C. for 2 hr and fluorescence was measured on an EnVision Plate Reader. The 665 nm/615 nm ratio was calculated from EnVision raw data. Data were normalized using whole-plate averages of “positive” and “negative” readings. A four-parameter “log[inhibitor] vs. response” curve was fitted using GraphPad Prism 7.0.

MV4-11 cells = assay: MV4-11 Cell Cytotoxicity Assay; format: cell-based, human; settings: human, MV4-11 cells, CCK-8
Source text: % Inhibition=100−(D−B)/(S−B)*100%.
S: The absorbance of the maximum (cells with DMSO)
B: The absorbance of the minimum (medium with DMSO)

Compound | IC50 (HSP90α) [nM] | IC50 (BRD4 (BD1+BD2)) [nM] | IC50 at 72 h (MV4-11 cells) [nM]
Cc1sc2c(c1C)C(c1ccc(Cl)cc1)=N[C@@H](CC(=O)N1CCN(C(=O)C3CCN(c4ccc(-n5c(O)nnc5-c5cc(C(C)C)c(O)cc5O)cc4)CC3)CC1)c1nnc(C)n1-2 [Compound 29, (S)-2-(4-(4-chlorophenyl)-2,3,9-trimethyl-6H-thieno[3,2-f][1,2,4]triazolo[4,3-a][1,4]diazepin-6-yl)-1-(4-(1-(4-(3-(2,4-dihydroxy-5-isopropylphenyl)-5-hydroxy-4H-1,2,4-triazol-4-yl)phenyl)piperidine-4-carbonyl)piperazin-1-yl)ethan-1-one] | > 1000 | > 1000 | 100 to 1000
COc1cccc(-c2cc(C(=O)Nc3ccc(-c4ccc(OC5CCN(C)CC5)cc4OCCN(C)C(=O)C[C@@H]4N=C(c5ccc(Cl)cc5)c5c(sc(C)c5C)-n5c(C)nnc54)cc3)ccc2OC)c1 [Compound 136] | > 1000 | 100 to 1000 | 100 to 1000
Cc1sc2c(c1C)C(c1ccc(Cl)cc1)=N[C@@H](CC(=O)N1CCC(CN3CCN(Cc4ccc(-n5c(O)nnc5-c5cc(C(C)C)c(O)cc5O)cc4F)CC3)CC1)c1nnc(C)n1-2 [Compound 17, (S)-2-(4-(4-chlorophenyl)-2,3,9-trimethyl-6H-thieno[3,2-f][1,2,4]triazolo[4,3-a][1,4]diazepin-6-yl)-1-(4-((4-(4-(3-(2,4-dihydroxy-5-isopropylphenyl)-5-hydroxy-4H-1,2,4-triazol-4-yl)-2-fluorobenzyl)piperazin-1-yl)methyl)piperidin-1-yl)ethan-1-one, trifluoroacetic acid] | 100 to 1000 | > 1000 | < 100
Cc1sc2c(c1C)C(c1ccc(Cl)cc1)=N[C@@H](CC(=O)N1CCC(CN3CCN(Cc4ccc(-n5c(C(N)=O)nnc5-c5ccc(O)cc5O)cc4)CC3)CC1)c1nnc(C)n1-2 [Compound 112, (S)-4-(4-((4-((1-(2-(4-(4-chlorophenyl)-2,3,9-trimethyl-6H-thieno[3,2-f][1,2,4]triazolo[4,3-a][1,4]diazepin-6-yl)acetyl)piperidin-4-yl)methyl)piperazin-1-yl)methyl)phenyl)-5-(2,4-dihydroxyphenyl)-4H-1,2,4-triazole-3-carboxamide, trifluoroacetic acid] | 100 to 1000 | < 100 | < 100
Cc1sc2c(c1C)C(c1ccc(Cl)cc1)=N[C@@H](CC(=O)NCCOCCN[C@@H](C)C(=O)NC(C(=O)N1CCC[C@H]1C(=O)Nc1snnc1-c1ccccc1)C1CCCCC1)c1nnc(C)n1-2 (stereo in doubt) [Compound 127, (S)-1-((2S,5S)-14-((S)-4-(4-chlorophenyl)-2,3,9-trimethyl-6H-thieno[3,2-f][1,2,4]triazolo[4,3-a][1,4]diazepin-6-yl)-2-cyclohexyl-5-methyl-4,13-dioxo-9-oxa-3,6,12-triazatetradecanoyl)-N-(4-phenyl-1,2,3-thiadiazol-5-yl)pyrrolidine-2-carboxamide] | > 1000 | 100 to 1000 | 100 to 1000
CCn1c(=O)/c(=C2\Sc3ccccc3N2C)s/c1=C\c1cccc[n+]1CCNC(=O)C[C@@H]1N=C(c2ccc(Cl)cc2)c2c(sc(C)c2C)-n2c(C)nnc21 [Compound 8, 1-(2-(2-((6S)-4-(4-chlorophenyl)-2,3,9-trimethyl-6H-thieno[3,2-f][1,2,4]triazolo[4,3-a][1,4]diazepin-6-yl)acetamido)ethyl)-2-((Z)-((E)-3-ethyl-5-(3-methylbenzo[d]thiazol-2(3H)-ylidene)-4-oxothiazolidin-2-ylidene)methyl)pyridin-1-ium] | > 1000 | 100 to 1000 | > 1000
Cc1sc2c(c1C)C(c1ccc(Cl)cc1)=N[C@@H](CC(=O)NCCOCCOc1ccc(-n3c(S)nnc3-c3cc(C(C)C)c(O)cc3O)cc1)c1nnc(C)n1-2 [Compound 33, (S)-2-(4-(4-chlorophenyl)-2,3,9-trimethyl-6H-thieno[3,2-f][1,2,4]triazolo[4,3-a][1,4]diazepin-6-yl)-N-(2-(2-(4-(3-(2,4-dihydroxy-5-isopropylphenyl)-5-mercapto-4H-1,2,4-triazol-4-yl)phenoxy)ethoxy)ethyl)acetamide] | 100 to 1000 | 100 to 1000 | 100 to 1000
Cc1sc2c(c1C)C(c1ccc(Cl)cc1)=N[C@@H](CCNCCOc1ccc(-n3c(O)nnc3-c3cc(C(C)C)c(O)cc3O)cc1)c1nnc(C)n1-2 [Compound 62, (S)-4-(4-(4-(2-((2-(4-(4-chlorophenyl)-2,3,9-trimethyl-6H-thieno[3,2-f][1,2,4]triazolo[4,3-a][1,4]diazepin-6-yl)ethyl)amino)ethoxy)phenyl)-5-hydroxy-4H-1,2,4-triazol-3-yl)-6-isopropylbenzene-1,3-diol, trifluoroacetic acid] | 100 to 1000 | > 1000 | 100 to 1000
CC[C@@H](C)Nc1cc(C(=O)NC2C[C@H]3CC[C@H](C2)N3c2ccc(C(=O)c3ccc(CN4CCN(CC5CCN(C(=O)C[C@@H]6N=C(c7ccc(Cl)cc7)c7c(sc(C)c7C)-n7c(C)nnc76)CC5)CC4)cc3)cn2)c(C)cc1C(N)=O (stereo partly drawn) [Compound 25, 5-(((R)-sec-butyl)amino)-N1-((1R,3r,5S)-8-(5-(4-((4-((1-(2-((S)-4-(4-chlorophenyl)-2,3,9-trimethyl-6H-thieno[3,2-f][1,2,4]triazolo[4,3-a][1,4]diazepin-6-yl)acetyl)piperidin-4-yl)methyl)piperazin-1-yl)methyl)benzoyl)pyridin-2-yl)-8-azabicyclo[3.2.1]octan-3-yl)-2-methylterephthalamide] | > 1000 | 100 to 1000 | 100 to 1000
Cc1sc2c(c1C)C(c1ccc(Cl)cc1)=N[C@@H](CC(=O)NCc1ccc(CN3CCC(Cc4ccc(-n5c(C(=O)NCC(F)(F)F)nnc5-c5cc(C(C)C)c(O)cc5O)cc4)CC3)cc1)c1nnc(C)n1-2 [Compound 96, (S)-4-(4-((1-(4-((2-(4-(4-chlorophenyl)-2,3,9-trimethyl-6H-thieno[3,2-f][1,2,4]triazolo[4,3-a][1,4]diazepin-6-yl)acetamido)methyl)benzyl)piperidin-4-yl)methyl)phenyl)-5-(2,4-dihydroxy-5-isopropylphenyl)-N-(2,2,2-trifluoroethyl)-4H-1,2,4-triazole-3-carboxamide, trifluoroacetic acid] | 100 to 1000 | < 100 | < 100
COc1cccc(-c2cc(C(=O)Nc3ccc(-c4ccc(OC5CCN(CC[C@@H]6N=C(c7ccc(Cl)cc7)c7c(sc(C)c7C)-n7c(C)nnc76)CC5)cc4O)cc3)ccc2OC)c1 [Compound 132] | > 1000 | > 1000 | > 1000
CCNC(=O)c1noc(-c2cc(C(C)C)c(O)cc2O)c1-c1ccc(CN2CCN(CC3CCN(C(=O)C[C@@H]4N=C(c5ccc(Cl)cc5)c5c(sc(C)c5C)-n5c(C)nnc54)CC3)CC2)cc1 [Compound 126, (S)-4-(4-((4-((1-(2-(4-(4-chlorophenyl)-2,3,9-trimethyl-6H-thieno[3,2-f][1,2,4]triazolo[4,3-a][1,4]diazepin-6-yl)acetyl)piperidin-4-yl)methyl)piperazin-1-yl)methyl)phenyl)-5-(2,4-dihydroxy-5-isopropylphenyl)-N-ethylisoxazole-3-carboxamide hydrochloride] | 100 to 1000 | 100 to 1000 | < 100
Cc1sc2c(c1C)C(c1ccc(Cl)cc1)=N[C@@H](CC(=O)N1CCC(CN3CCN(Cc4ccc(-n5c(O)nnc5-c5ccc(O)cc5O)cc4)CC3)CC1)c1nnc(C)n1-2 [Compound 4, 2-((6S)-4-(4-chlorophenyl)-2,3,9-trimethyl-6H-thieno[3,2-f][1,2,4]triazolo[4,3-a][1,4]diazepin-6-yl)-1-(4-((4-(4-(3-(2,4-dihydroxyphenyl)-5-hydroxy-4H-1,2,4-triazol-4-yl)benzyl)piperazin-1-yl)methyl)piperidin-1-yl)ethanone, trifluoroacetic acid] | > 1000 | < 100 | 100 to 1000
CCc1cc(-c2nnc(C(=O)NC(C)C)n2-c2ccc(CN3CCN(CC4CCN(C(=O)C[C@@H]5N=C(c6ccc(Cl)cc6)c6c(sc(C)c6C)-n6c(C)nnc65)CC4)CC3)cc2)c(O)cc1O [Compound 105, (S)-4-(4-((4-((1-(2-(4-(4-chlorophenyl)-2,3,9-trimethyl-6H-thieno[3,2-f][1,2,4]triazolo[4,3-a][1,4]diazepin-6-yl)acetyl)piperidin-4-yl)methyl)piperazin-1-yl)methyl)phenyl)-5-(5-ethyl-2,4-dihydroxyphenyl)-N-isopropyl-4H-1,2,4-triazole-3-carboxamide, trifluoroacetic acid] | 100 to 1000 | 100 to 1000 | < 100
